Test results from PubChem BioAssay (NCI).
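Where inhibition never reached the appropriate level, the endpoint shown equals the highest concentration tested. Otherwise, values were interpolated linearly from a five-concentration, 48-hour dose response in 96-well plates. TGI denotes the concentration required for complete inhibition of growth.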 Where a SMILES comes first, the peptide text is derived from it. The star is where a group is joined. OSu = O=C1CCC(=O)N1O*

Assays:
Assay in all cases: growth of human tumour cells (NCI), 48 h
MDA-MB-231 breast = tested on: MDA-MB-231 breast
HCC-2998 colon = tested on: HCC-2998 colon
NCI-H522 lung = tested on: NCI-H522 lung
RXF 393 renal = tested on: RXF 393 renal
SNB-19 CNS = tested on: SNB-19 CNS
COLO 205 colon = tested on: COLO 205 colon
HT29 colon = tested on: HT29 colon
IGROV1 ovarian = tested on: IGROV1 ovarian
SF-539 CNS = tested on: SF-539 CNS
MDA-MB-435 = tested on: MDA-MB-435
PC-3 prostate = tested on: PC-3 prostate
UACC-257 melanoma = tested on: UACC-257 melanoma
SK-MEL-5 melanoma = tested on: SK-MEL-5 melanoma
SK-OV-3 ovarian = tested on: SK-OV-3 ovarian
HCT-116 colon = tested on: HCT-116 colon
A498 renal = tested on: A498 renal
SR leukemia = tested on: SR leukemia

Structure (SMILES) | TGI (MDA-MB-231 breast) [µM] | TGI (HCC-2998 colon) [µM] | TGI (NCI-H522 lung) [µM] | TGI (RXF 393 renal) [µM] | TGI (SNB-19 CNS) [µM] | TGI (COLO 205 colon) [µM] | TGI (HT29 colon) [µM] | TGI (IGROV1 ovarian) [µM] | TGI (SF-539 CNS) [µM] | TGI (MDA-MB-435) [µM] | TGI (PC-3 prostate) [µM] | TGI (UACC-257 melanoma) [µM] | TGI (SK-MEL-5 melanoma) [µM] | TGI (SK-OV-3 ovarian) [µM] | TGI (HCT-116 colon) [µM] | TGI (A498 renal) [µM] | TGI (SR leukemia) [µM]
O=C1/C(=C\c2ccc(Cl)cc2Cl)Sc2scc(-c3ccc(O)c(O)c3)[n+]21 | 61.2 | 40.9 | 39.4 | 37.1 | 48.8 | 40.5 | 32.6 | 50.7 | 45.2 | 57.7 | 36.4 | 71.3 | 22.9 | 39.2 | 29.8 |  | 
COc1cc2c(cc1O)[C@H](C)C(c1ccc(OC)c(OC)c1)O2 (some centres not stated) |  | > 100 | 30.8 | 30.3 | 65.3 | 49.2 | 34.5 | 4.36 | 38.6 |  |  | 35.9 | 20.8 | > 100 | 15.1 | > 100 | 
CCCC/C=C/C=C/C=C/CCCCCCCC(=O)OCC(COC(=O)CCCCCCC/C=C/C1C=CC(CCCC)C(C(=O)O)C1C(=O)O)OC(=O)CCCCCCC/C=C/C=C/C=C/CCCC (configuration not stated) (tested in a mixture with another compound) |  | 40.7 |  |  | 46.1 | 29.3 | 35.3 | 37.8 | 39.1 |  |  | 34.9 | 31.1 | 44.6 | 30.7 | 34.4 | 
COc1ccc(C2Oc3cc(OC)c(OC)cc3C2CCl)cc1OC (configuration not stated) |  | > 100 | > 100 |  | > 100 | > 100 |  |  | > 100 |  |  | > 100 | > 100 |  | > 100 | > 100 | > 100
CCOC(=O)C12OC(OCC)(CC1(OCC)OCC)C1(CC1)C2=O (configuration not stated) | > 100 | > 100 |  |  | > 100 | > 100 | > 100 | > 100 | > 100 | > 100 | > 100 | > 100 | > 100 | > 100 | > 100 | > 100 | 
O=c1[nH]c2cc(Cl)ccc2nc1/C(=N\Nc1ccccc1)C(O)c1ccc(Cl)c(Cl)c1 (configuration not stated) |  | > 100 | > 100 | > 100 | > 100 | > 100 | > 100 | > 100 | > 100 |  |  | > 100 | > 100 | > 100 | > 100 |  | > 100
COc1ccc(NC(=S)c2ccc(CN3CCCCC3)s2)cc1 |  | 32.3 | 32.5 |  | 43.9 | 30.8 | 18.3 | 49.2 | > 100 | 34.7 | 62.2 | 35.6 | 28 | 31.8 | 35.6 | 31.5 | 51.8
COc1cc(C2C(Cl)C(=O)N2n2cnc3ccccc3c2=O)ccc1O (configuration not stated) |  | > 100 | > 100 | > 100 | > 100 | > 100 | > 100 | > 100 |  |  |  | 99.6 | > 100 | > 100 | > 100 |  | > 100
CNC(=O)NCCCC(NC(C)=O)C(=O)NCc1ccccc1 (configuration not stated) |  | > 100 | > 100 | > 100 | > 100 | > 100 | > 100 | > 100 | > 100 |  |  | > 100 | > 100 | > 100 | > 100 | > 100 | 
COCCOCOC(CCCCO)c1cc(C)c(O[Si](C)(C)C(C)(C)C)c(C)c1 (configuration not stated) |  | 19.8 | 6 | 10.5 | 19.2 | 22.3 |  | 26.7 | 26 |  |  | 15.7 | 12.8 | 31.8 |  | 26.9 | 
COC(=O)c1cccc(C)c1C1CN=NC12Cc1cc(C)cc(C)c1C2=O (configuration not stated) | 77.6 | 76.7 | > 100 | > 100 | > 100 |  | 86.7 | > 100 | > 100 | 66.1 |  | > 100 | 77 |  | 66.5 | > 100 | > 100
CON(C)C(=O)C(C)N(Cc1ccccc1)Cc1ccccc1 (configuration not stated) |  | > 100 |  | > 100 | > 100 |  | > 100 | > 100 | > 100 | > 100 | > 100 | > 100 | > 100 | > 100 | > 100 | > 100 | > 100
CCNC(=O)c1ccc(C)c(N=NN(C)C)c1 |  | > 100 | > 100 |  | > 100 |  | > 100 | > 100 | > 100 |  |  | > 100 | > 100 |  | > 100 |  | 
C=C1C(=O)O[C@@H]2/C=C(C)/C=C\[C@@H]3O[C@@]3(C)C[C@@H](O)C12 (some centres not stated) |  | 33.1 | 19.6 | 76.4 | 42.5 | 21.1 | 26.2 | 28.6 | 26 | 39.6 | 73.2 | 28.1 | 29 | > 100 | 20.6 | 30.4 | 
COc1cc(S(=O)(=O)Nc2ccc(-c3csc(N4C(=O)CSC4c4cccc(Oc5ccccc5)c4)n3)cc2)ccc1Cl (configuration not stated) |  |  | > 100 | 52.8 | > 100 | > 100 | > 100 | > 100 | > 100 | > 100 | > 100 |  | > 100 | > 100 | > 100 | > 100 | > 100
Cc1ccc(Nc2nc(NNC(=O)Cc3ccccc3)nc(NNC(=O)c3ccncc3)n2)cc1 | > 10 | > 10 |  |  |  | > 10 | > 10 | > 10 | > 10 |  |  | > 10 | > 10 | > 10 |  | > 10 | > 10
Nc1nc(Cl)cc(OCC2(CO)CC=CC2)n1 |  | > 100 | > 100 | > 100 | > 100 |  | > 100 | > 100 | > 100 | > 100 | > 100 | > 100 | > 100 |  | > 100 | > 100 | > 100
O=C(Nc1c(O)[nH]c(=S)[nH]c1=O)c1ccccc1 |  |  | > 100 |  | > 100 | > 100 | > 100 | > 100 | > 100 |  |  | > 100 | > 100 | > 100 | > 100 | > 100 | > 100
NCCCCC(NC(=O)C(N)Cc1ccc(O)cc1)C(=O)NC(CCCCN)C(=O)NC(CCCCN)C(=O)ON1C(=O)CCC1=O (configuration not stated) (H-YKKK-OSu; configuration not given here) | > 100 | > 100 |  | > 100 | > 100 | > 100 | > 100 | > 100 |  |  | > 100 | > 100 | > 100 |  | > 100 | > 100 | > 100
CC1(C)[C@@H](Cn2cc(I)c(=O)[nH]c2=O)CC[C@@]1(C)CO | > 100 | > 100 |  | > 100 | > 100 | > 100 |  |  |  | > 100 | > 100 | > 100 | > 100 | > 100 | > 100 | > 100 | 
S=P1(Oc2ccccc2)NNP2(=NP(N3CC3)(N3CC3)=NP(N3CC3)(N3CC3)=N2)NN1 (configuration not stated) |  | > 100 | > 100 |  | > 100 | > 100 | > 100 | > 100 | > 100 |  |  | > 100 | > 100 | > 100 | > 100 | > 100 | 
Cc1ccc(S[C@@H](C)[C@@](O)(CF)CN(Cc2ccccc2)C(=O)C(F)(F)F)cc1 | 54.3 | 41.5 | > 100 |  | 55 |  | 27.6 | > 100 |  | 40.4 | 94.3 | 56.8 |  |  | 27.3 | 29.7 | 
Cc1ccc(C(=O)OC(C(=O)O)C(OC(=O)c2ccc(C)cc2)C(=O)O)cc1 (configuration not stated) (tested in a mixture with another compound) |  | 10.1 | 11.4 | 16 | 25.6 | 10.5 | 10.2 | 26.5 | 25.2 |  |  | 13.7 | 7.72 | 28.2 | 13.8 | 24.5 | 
COc1cccc(-c2cc(=O)c3cc(N4CCCCC4)ccc3[nH]2)c1 | > 100 |  | > 21 | 1.62 | > 100 |  | 0.0316 | > 100 | 0.0139 |  | > 100 | > 100 | 9.55 | > 100 |  | > 100 | 
C/C(CN1C(=O)c2ccccc2C1=O)=N\NS(=O)(=O)c1ccc(Cl)cc1 |  | > 100 | > 100 |  | > 100 | > 100 | > 100 | > 100 | > 100 |  |  | > 100 | > 100 |  | > 100 | > 100 | > 100
CCn1cnc2c(=S)nc(N)[nH]c21 |  | > 100 | > 100 | > 100 | > 100 | > 100 | > 100 | > 100 | > 100 |  |  | > 100 |  | > 100 | > 100 |  | > 100
